Patent US4897503A, “1,1,2-triaryl-1-alkene derivatives” (Taiho Pharmaceutical, priority 1986, dated 1990)
Read-outs that look alike come from different tables or passages of the source.

Tests used:
uterus = assay: Anti-uterotrophic effect (inhibition of uterine weight gain in immature rats); format: in vivo, rat (Sprague-Dawley, female; details: Rattus norvegicus, 504 h, read-out: ED50 (50% inhibition of uterine weight gain)
Description: The antiuterotophic activity of each test compound was studied using immature 4-week-old female Sprague-Dawley rats, according to the method described in Methods in Hormone Research, vol. 2, Academic Press p. 707 (1962).
Each test compound was suspended in a vehicle solution (i.e., an aqueous solution containing 0.5% of carboxymethylcellulose and 0.5% of Tween 80) and the suspension was orally administered using a stomach tube 6 times a week for 3 consecutive weeks at various doses. The animals were autopsied one day after the final administration and the uterus was weighed.
The percent inhibition of uterine weight gain was calculated by the formula
Percent inhibition=(A-C)×100/(A-B)
where A is the mean value of the uterine weight of the control which received the vehicle solution, B is that of the ovariectomized control (i.e., animals ovariectomized at the age of four weeks and thereafter treated with the vehicle solution for 3 weeks) and C is that of the animals which received each dose of each test compound. Then, the dose of each test compound causing a 50% inhibition (ED50) was calculated from the dose-response curve.

[1] = test system: mammary cancer induced by 7,12-dimethylbenzanthracene (DMBA); assay: Effect on DMBA-induced mammary cancer: inhibition of tumor growth; format: in vivo, rat (Sprague-Dawley, female); details: 6 times a week for 3 weeks, 15 animals
Procedure: (§1) The experiments were performed in 7-week-old female Sprague-Dawley rats bearing mammary cancer which had been induced by oral administration of 7,12-dimethylbenzanthracene (DMBA) according to the method described in European Journal of Cancer and Clinical Oncology 11, 571 (1975) and Cancer Research 26, 2169 (1966). The inhibitory effect of each test compound on this cancer was investigated.
(§2) Each test compound was suspended in an aqueous solution containing 0.5% of carboxymethylcellulose and 0.5% of Tween 80 and the suspension was orally administered by gastric gavage 6 times a week for 3 consecutive weeks. Once a week and on the 21st day, the number of induced tumors was counted and the surface area of tumors was measured. The percent increase in surface area relative to the surface area on the first day of administration was calculated and the result was compared with the result in the control group. The inhibitory effects on the appearance of new tumor are shown in Table 7 and the inhibitory effects on the enlargement of the tumor are shown in Table 8. The inhibition of appearance of new tumor (%) was calculated according to the formula: 100-(N/M)×100 where N is the number of newly appeared tumors in test group and M is the number of newly appeared tumors in control group.

[2] = Acute toxicity test (oral and intraperitoneal, Up-and-Down method); set-up: species or system mouse (ddY strain); details: mouse, in vivo, 6-week old male ddY mice, 3 weeks observation
Procedure: The acute oral and intraperitoneal toxicity of these compounds were investigated in 6-week old male ddY strain mice. In the oral toxicity study, each test compound was suspended or dissolved in an aqueous solution containing 0.5% of carboxymethylcellulose and 0.5% of Tween 80 and was administered at a dose of 4 ml/100 g. In the intraperitoneal toxicity study, each test compound was suspended or dissolved in physiological saline containing 0.5% of Tween 80 and was administered at a dose of 2 ml/100 g.

[3] = test system: mammary cancer induced by 7,12-dimethylbenzanthracene (DMBA); assay: Effect on DMBA-induced mammary cancer: inhibition of appearance of new tumor; format: in vivo, rat (Sprague-Dawley, female); details: for Inhibition of appearance of new tumor: 6 times a week for 3 weeks, 15 animals
Procedure: as §1, §2

[4] = vs tamoxifen; cited from earlier work
[5] = test system: experimental hormone-dependent tumor cells; details: vs tamoxifen; cited from earlier work
[6] = ip, intraperitoneal, read-out: LD50 intraperitoneal

Compound | ED50 (uterus; po) | Inhibition of tumor growth (on day 21) ([1]; 0.1 mg/kg/day p.o.) | Inhibition of tumor growth (on day 21) ([1]; 0.3 mg/kg/day p.o.) | LD50 at 504 h [2, 6] | LD50 at 504 h ([2]; oral, read-out: LD50 oral) | Inhibition of appearance of new tumor ([3]; 0.1 mg/kg/day p.o.) | Inhibition of appearance of new tumor ([3]; 0.3 mg/kg/day p.o.) | effectiveness in vivo, in words [4] | antitumor activity in vitro, in words [5] | ED50 (uterus; oral, 6 times a week for 3 weeks, immature female SD rats, 7 animals) | inhibition of appearance of new mammary cancer, in words ([3]; 0.1 mg/kg/day)
CCC(=C(c1ccc(OCCN(C)C)cc1)c1ccc(OP(=O)(O)O)cc1)c1ccc(C(C)C)cc1 [Compound 5] | 0.097 mg/kg | 26.5% | 50.2% | 354 mg/kg | > 2000 mg/kg | 46.7% | 48.5% | – | – | – | –
CC/C(=C(\c1ccc(O)cc1)c1ccc(OCCN(C)C)cc1)c1ccccc1 [4-hydroxytamoxifen] | – | – | – | – | – | – | – | inferior in effectiveness to tamoxifen | more potent antitumor activity than tamoxifen | – | –
CC/C(=C(/c1ccc(OCCN(C)C)cc1)c1ccc(OP(=O)(O)O)cc1)c1ccccc1 [Compound 1, (E)-4-[1-[4-[2-(Dimethylamino)ethoxy]phenyl]-2-phenyl-1-butenyl]-phenyl phosphate] | 0.076 mg/kg | 26.5% | 42.3% | 223 mg/kg | > 2000 mg/kg | 56.7% | 54.7% | – | – | – | –
CCOc1ccc(/C(CC)=C(/c2ccc(OCCN(C)C)cc2)c2ccc(OP(=O)(O)O)cc2)cc1 [Compound 7] | 0.026 mg/kg | – | – | 223 mg/kg | > 2000 mg/kg | – | – | – | – | – | –
CC/C(=C(\c1ccccc1)c1ccc(OCCN(C)C)cc1)c1ccccc1 [Tamoxifen, reference compound] | – | 4.7% | 39.0% | 177 mg/kg | > 2000 mg/kg | -7.7% | 21.0% | – | – | 0.203 mg/kg | ineffective
